Data published in patent US20240325398A1, “COMBINATION THERAPIES” (Infinity Pharmaceuticals, Inc., priority 2014, published 2024).

Experiments:
SU-DHL-4-epst = test: Combination study, ATPLite 72 h, dose matrix (Synergy Score, CI50); conditions: combination with Compound 1, 72 h
Description: (§1) Cells are thawed from a liquid nitrogen preserved state. Once cells have been expanded and divide at their expected doubling times, screening begins. Cells are seeded in growth media in either black 1536-well or 384-well tissue culture treated plates. Cells are then equilibrated in assay plates via centrifugation and placed in incubators attached to the Dosing Modules at 37° C. for 24 hours before treatment. […] These Tzero (To) plates are read using ultra-sensitive luminescence on Envision plate readers (Perkin Elmer). Treated assay plates are incubated with compound for 72 hours. After 72 hours, plates are developed for endpoint analysis using ATPLite. All data points are collected via automated processes, quality controlled and analyzed using Zalicus software.
(§2) The measure of effect in the experiment can be the inhibition of cellular response relative to the untreated level (vehicle alone). […] The inhibition ranges from 0% at the untreated level to 100% when T=0. Inhibition levels are negative for agents that actually increase levels.
(§3) Growth Inhibition (GI) is used as a measure of cell viability. […] A GI reading of 100% represents complete growth inhibition—T72 compound-treated and T0 vehicle signals are matched. […] A GI reading of 200% represents complete death of all cells in the culture well. Compounds reaching an activity plateau of GI 200% are considered cytotoxic. GI is calculated by applying the following test and equation:
(§4) Combination analysis data were collected in a 6×6 dose matrix. Synergy is calculated by comparing a combination's response to those of its single compound, against the drug-with-itself dose-additive reference model. Deviations from dose additivity may be assessed visually on an isobologram or numerically with a Combination Index (CI). […] Additive effect is CI=1.0. […] Antagonistic effect is CI>1.0.
(§5) To measure combination effects in excess of Loewe additivity, a scalar measure to characterize the strength of synergistic interaction termed the Synergy Score is devised. The Synergy Score is calculated as:
(§6) The fractional inhibition for each component agent and combination point in the matrix is calculated relative to the median of all vehicle-treated control wells. The Synergy Score equation integrates the experimentally-observed activity volume at each point in the matrix in excess of a model surface numerically derived from the activity of the component agents using the Loewe model for additivity. Additional terms in the Synergy Score equation (above) are used to normalize for various dilution factors used for individual agents and to allow for comparison of synergy scores across an entire experiment. The inclusion of positive inhibition gating or an Idata multiplier removes noise near the zero effect level, and biases results for synergistic interactions at that occur at high activity levels.
(§7) Loewe Volume (Loewe Vol) is used to assess the overall magnitude of the combination interaction in excess of the Loewe additivity model. Loewe Volume is particularly useful when distinguishing synergistic increases in a phenotypic activity (positive Loewe Volume) versus synergistic antagonisms (negative Loewe Volume). […] This model defines additivity as a non-synergistic combination interaction where the combination dose matrix surface should be indistinguishable from either drug crossed with itself. The calculation for Loewe additivity is:

RL = test: as above; conditions: combination with Compound 1, 72 h
DOHH-2 = test: as above; conditions: combination with Compound 1, 72 h
Description: as §1, §2, §3, §4, §5, §6, §7

WSU-NHL = test: as above; conditions: combination with Compound 1, 72 h
KARPAS-422 = test: as above; conditions: combination with Compound 1, 72 h
OCI-Ly7 = test: as above; conditions: combination with Compound 1, 72 h
SU-DHL-10-epst = test: as above; conditions: combination with Compound 1, 72 h
DOHH2 = test: Compound 1 with dexamethasone, CellTiter-Glo viability 72 h, combination index; type: cell-based; conditions: combination with Compound 1; DOHH2 cells; CellTiter-Glo 72 h; FIG. 11
Description: The effects of Compound 1 with dexamethasone were examined in a panel of cell lines. Cells were cultured and assayed as follows. Compound 1 was serially diluted with cell culture medium and various DMSO concentrations. The top concentration of Compound 1 exposed to cells was 3 uM for cell lines other than WSU-NHL and DOHH2. For WSU-NHL and DOHH2 cell lines, the top concentration of Compound 1 exposed to the cells was 0.3 uM. Dexamethasone was serially diluted in culture media and phosphate buffered saline (PBS). The top concentration of dexamethasone used on cells was 3 uM. Cells were at least 73% viable and were counted and diluted for plating at a density of about 92,000 cell/mL, 130 uL cells per well in 96 well plates for SUDHL6, Karpas 422, SUDHL4, WSU-NHL, RL, and DOHH2 cell lines. The SUDHL10 cell line was plated at a density of about 46,000 cells/mL, 130 uL cells per well in 96 well plates.
Various concentrations of Compound 1 and various combinations of dexamethasone were added to various wells of cells. Single agents (Compound 1 or dexamethasone alone) were also added to some wells of cells. Cells were incubated with compounds for 72 hours. To assay for effects of the compounds on cell viability, a CellTiter-Glo® luminescent cell viability assay (commercially available) was used. To each plate of cells, 100 uL CellTiter-Glo reagent was added, incubated, and luminescence quantified using a […].
The results for cell line DOHH2 are depicted in FIG. 11 and Table 11. […] Table 11 depicts combination index (CI) values for different combinations of dexamethasone/Compound 1 concentrations.

Farage = test: Combination study, ATPLite 72 h, dose matrix (Synergy Score, CI50); conditions: combination with Compound 1; Farage; 72 h
Description: as §1
where T is treated cell count and V is untreated (vehicle) cell count (at 72 hours). I ranges from 0% (when T=V) to 100% (when T=0). […] The measure of effect in the experiment can be the inhibition of cellular response relative to the untreated level (vehicle alone). […] The inhibition ranges from 0% at the untreated level to 100% when T=0. Inhibition levels are negative for agents that actually increase levels. Other effect measures, such as an activity ratio r=T/V may be more appropriate for some assays. When activity ratios (e.g, fold increase over stimulated control) are being used, the effect can be measured using an induction 1=ln(T/V). With this definition, all effect expressions are the same as for inhibition.
as §3, §4
The isobologram was drawn by identifying the locus of concentrations that correspond to crossing the indicated inhibition level. This is done by finding the crossing point for each single agent concentration in a dose matrix across the concentrations of the other single agent. Practically, each vertical concentration CY is held fixed while a bisection algorithm is used to identify the horizontal concentration CX in combination with that vertical dose that gives the chosen effect level in the response surface Z(CX,CY). These concentrations are then connected by linear interpolation to generate the isobologram display. For synergistic interactions, the isobologram contour fall below the additivity threshold and approaches the origin, and an antagonistic interaction would lie above the additivity threshold. The error bars represent the uncertainty arising from the individual data points used to generate the isobologram. The uncertainty for each crossing point is estimated from the response errors using bisection to find the concentrations where Z−αZ(CX,CY) and Z+σZ(CX,CY) cross Icut, where αZ is the standard deviation of the residual error on the effect scale.
as §5
The fractional inhibition for each component agent and combination point in the matrix is calculated relative to the median of all vehicle-treated control wells.

In the case of `C[C@@H]1C[C@H]2[C@@H]3CCC4=CC(=O)C=C[C@]4(C)[C@@]3(F)[C@@H](O)C[C@]2(C)[C@@]1(O)C(=O)CO` [dexamethasone, (8S,9R,10S,11S,13S,14S,16R,17R)-9-Fluoro-11,17-dihydroxy-17-(2-hydroxyacetyl)-10,13,16-trimethyl-6,7,8,9,10,11,12,13,14,15,16,17-dodecahydro-3H-cyclopenta[a]phenanthren-3-one], the CI50 growth inhibition (SU-DHL-4-epst) is reported as “T (T=0.5 to <0.7)”, the CI50 inhibition (SU-DHL-4-epst) is reported as “T (T=0.5 to <0.7)” and the “Synergy Score growth inhibition” value (SU-DHL-4-epst) is reported as “A3 (A3=>3)”. For the same compound, the “Synergy Score inhibition” value (SU-DHL-4-epst) was “A3 (A3=>3)”, the CI50 growth inhibition (RL) was “S (S=0.01 to <0.5)” and the CI50 inhibition (RL) was “S (S=0.01 to <0.5)”. The “Synergy Score growth inhibition” value (RL) was “A3 (A3=>3)”, the “Synergy Score inhibition” value (RL) was “A3 (A3=>3)” and the CI50 growth inhibition (DOHH-2) was “S (S=0.01 to <0.5)”. The CI50 inhibition (DOHH-2) was “T (T=0.5 to <0.7)”, the “Synergy Score growth inhibition” value (DOHH-2) was “A3 (A3=>3)” and the “Synergy Score inhibition” value (DOHH-2) was “A3 (A3=>3)”. For the same compound, the CI50 inhibition (WSU-NHL) was “T (T=0.5 to <0.7)”, the “Synergy Score growth inhibition” value (WSU-NHL) was “A3 (A3=>3)” and the “Synergy Score inhibition” value (WSU-NHL) was “A3 (A3=>3)”. For the same compound, the CI50 growth inhibition (KARPAS-422) was “U (U=0.7 to <1)”, the CI50 inhibition (KARPAS-422) was “U (U=0.7 to <1)” and the “Synergy Score growth inhibition” value (KARPAS-422) was “A3 (A3=>3)”. For the same compound, the “Synergy Score inhibition” value (KARPAS-422) was “A3 (A3=>3)”, the CI50 growth inhibition (OCI-Ly7) was “S (S=0.01 to <0.5)” and the CI50 inhibition (OCI-Ly7) was “S (S=0.01 to <0.5)”. The “Synergy Score growth inhibition” value (OCI-Ly7) was “A3 (A3=>3)”, the “Synergy Score inhibition” value (OCI-Ly7) was “A3 (A3=>3)” and the CI50 growth inhibition (SU-DHL-10-epst) was “S (S=0.01 to <0.5)”. The CI50 inhibition (SU-DHL-10-epst) was “S (S=0.01 to <0.5)”, the “Synergy Score growth inhibition” value (SU-DHL-10-epst) was “A3 (A3=>3)” and the “Synergy Score inhibition” value (SU-DHL-10-epst) was “A3 (A3=>3)”. The “synergy of the combination” value (DOHH2) was “synergy”, the CI50 growth inhibition (Farage) was “U (U=0.7 to <1)” and the CI50 inhibition (Farage) was “T (T=0.5 to <0.7)”. The “Synergy Score growth inhibition” value (Farage) was “A3 (A3=>3)” and the “Synergy Score inhibition” value (Farage) was “A3 (A3=>3)”.
